Entries after “also recorded” stand apart in the source; their conditions may differ.
What was measured:
[1] = system: SNU-475; experiment: MTT antiproliferative assay, SNU-475 cells; format: cell-based; settings: Homo sapiens, 48 h
[2] = system: Bel-7402; experiment: MTT antiproliferative assay, Bel-7402 cells; format: cell-based; settings: Homo sapiens, 48 h
Description: (§1) Cell lines were purchased from Servicebio (Wuhan, China) and cultured in RPMI1640 (Servicebio, Wuhan, China) with 10% foetal bovine serum and 1% antibiotic agent (Servicebio, Wuhan, China) at 37 °C. With the treatment of synthetic compounds, cells were cultured for 48 h and added with MTT solution (Servicebio, Wuhan, China). After 4 h, medium was removed and DMSO was added to culture for 30 min. Finally, the absorbance value was obtained by a microplate reader (Multiskan Sky, Thermo Fisher, Shanghai, China).
(§2) In order to discover the potent anti-liver cancer agents, all tertiary sulphonamide analogues were evaluated for their anticancer activity in vitro against liver cancer cell lines ([…], HepG-2 and Bel-7402). Cell lines were treat with different tertiary sulphonamide derivatives 16 and 17a∼17f for 48 h to obtain IC50 values. In this work, 5-fluorouracil as an well-known antitumor drug was selected as the control agent.

[3] = system: HepG-2; experiment: MTT antiproliferative assay, HepG-2 cells; format: cell-based; settings: for IC50: Homo sapiens, HepG2, 48 h, MTT
Description: as §1, §2

[4] = system: L-02 cells; experiment: Cytotoxicity against normal liver cell line L-02; format: cell-based
Description: as §1

[5] = system: interphase microtubules in Bel-7402 cells; experiment: Immunofluorescence of interphase microtubules in Bel-7402 cells; format: cell-based; settings: 50 nM
Description: Liver cancer Bel-7402 cells were cultured on the slices for 24 h and treated with tertiary sulphonamide derivatives for 48 h. Then, Bel-7402 cells were fixed by 4% paraformaldehyde solution (Shanghai Yuanye Bio-Technology Co., Ltd, Shanghai, China) for 30 min. Bovine albumin was used to block the system for 30 min. Bel-7402 cells were cultured with β-tubulin and incubated for 24 h at 4 °C. Finally, 4′,6-diamidino-2-phenylindole (DAPI) was added in a dark room to obtain images of immunostaining (Confocal laser scanning microscope, FV3000RS, Beijing, China).

[6] = system: Bel-7402&shControl cells; experiment: Cell viability of control Bel-7402 cells; format: cell-based
[7] = system: H3K9me1/2 in Bel-7402 cells; experiment: Western blot of H3K9me1 and H3K9me2 in Bel-7402 cells; format: cell-based; settings: 48 h
Description: Liver cancer Bel-7402 cells were cultured for 24 h and treated with tertiary sulphonamide derivative 17a for 48 h at 37 °C. Protein lysates were harvested from the treated Bel-7402 cells. Nitrocellulose membrane was used to perform polyacrylamide gelelectrophoresis. H3K9me1 and H3K9me2 (Servicebio, Wuhan, China) were treated with the nitrocellulose membrane at 4 °C for 12 h. GAPDH as the secondary antibody was incubated for 1 h at room temperature (Shanghai Yuanye Bio-Technology Co., Ltd, Shanghai, China).
(§3) LSD1 could specifically demethylate mono- and dimethyl-lysine on histone H3 H3K9me1/2), leading to the transcriptional repression or activation of target genes. Thus, the expression levels of H3K9me1/2 in liver cancer Bel-7402 cells were explored with the treatment of 17a. […] The migration effects of tertiary sulphonamide derivative 17a were also investigated.

[8] = system: Bel-7402 cells; experiment: Transwell migration assay; format: cell-based; settings: 48 h
Description: Liver cancer Bel-7402 cells were cultured in the upper chambers of a Transwell 24-well plate (Servicebio, Wuhan, China) for 24 h. 1% FBS and 20% FBS were added into the upper chambers and lower chambers respectively. […] Then, all medium was removed and Bel-7402 cells were fixed with ethanol for 30 min. Finally, Bel-7402 cells from the upper chambers were stained with haematoxylin solution (Servicebio, Wuhan, China) for 30 min.
as §3

[9] = system: Bel-7402 xenograft; experiment: Bel-7402 xenograft antitumour study; settings: 60 mg/kg, intragastric administration, 21 days
Description: (§4) Xenograft models using Bel-7402 cells was established in nude mice (Jiangsu ALF Biotechnology Co., LTD, Jiangsu, China). Then, mice-bearing tumours were divided into two groups (vehicle and 60 mg/kg group). […] Tumour volume and tumour weight of treated mice were measured.
(§5) Xenograft tumours were produced by the subcutaneous implantation of liver cancer Bel-7402 cells.

[10] = system: heart, liver, spleen, lung and kidney; experiment: Haematoxylin & eosin staining of organs of treated mice; settings: 60 mg/kg, intragastric, 21 days, H&E staining
Description: as §4, §5

[11] = system: tubulin; experiment: Inhibitory activity of tubulin polymerisation in vitro; format: biochemical; settings: fluorescence intensity
[12] = target: LSD1 (Homo sapiens, UniProt O60341); experiment: LSD1 enzymatic assay; settings: for inhibition at 0.2 µM: read-out: inhibitory rate against LSD1

| SMILES | IC50 [1] | IC50 [2] | IC50 [3] | melting point | cytotoxicity against L-02 cells [4] | depolymerisation of interphase microtubules [5] | cell viability of Bel-7402&shControl cells [6] | expression levels of H3K9me1 and H3K9me2 [7] | migration of Bel-7402 cells [8] | reduction of tumour weight [9] | tumour growth [9] | toxicity of organs (heart, liver, spleen, lung and kidney) [10] | fold activity increase against HepG-2 cells ([3]; 17b VS. 17c) | IC50 [11] | IC50 [12] | fold activity loss against LSD1 ([12]; methyl group replaced with acetyl group (17d VS. 17f as printed)) | inhibition at 0.2 µM [12] |
| --- | --- | --- | --- | --- | --- | --- | --- | --- | --- | --- | --- | --- | --- | --- | --- | --- | --- |
| O=c1[nH]cc(F)c(=O)[nH]1 [5-Fluorouracil, reference compound] | 26.47 ± 0.16 µM | 15.1 ± 1.28 µM | 12.2 ± 0.68 µM | – | – | – | – | – | – | – | – | – | – | – | – | – | – |
| COc1ccc(S(=O)(=O)N(CCBr)c2cc(OC)c(OC)c(OC)c2)cc1 [Compound 16, N-(2-bromoethyl)-4-methoxy-N-(3,4,5-trimethoxyphenyl)benzenesulfonamide] | > 20 µM | > 20 µM | > 20 µM | 116 to 118 °C | – | – | – | – | – | – | – | – | – | – | – | – | – |
| COc1ccc(S(=O)(=O)N(CCSC(=S)N2CCN(C)CC2)c2cc(OC)c(OC)c(OC)c2)cc1 [Compound 17a, 2-((4-Methoxy-N-(3,4,5-trimethoxyphenyl)phenyl)sulfonamido)ethyl-4-methylpiperazine-1-carbodithioate] | 0.73 ± 0.16 µM | 0.32 ± 0.08 µM | 0.57 ± 0.07 µM | – | > 64 µM | more pronounced depolymerisation effects | potently inhibited the cell viability | increased the expression levels of H3K9me1 and H3K9me2 | concentration-dependently inhibited migration; also recorded: significantly inhibited the migration | 42.97% | effectively inhibited the tumour growth in vivo | no apparent toxicity of organs | – | – | – | – | – |
| CCN1CCN(C(=S)SCCN(c2cc(OC)c(OC)c(OC)c2)S(=O)(=O)c2ccc(OC)cc2)CC1 [Compound 17b, 2-((4-Methoxy-N-(3,4,5-trimethoxyphenyl)phenyl)sulfonamido)ethyl-4-ethylpiperazine-1-carbodithioate] | 2.35 ± 0.7 µM | 1.37 ± 0.16 µM | 1.03 ± 0.28 µM | 150 to 152 °C | > 64 µM | more pronounced depolymerisation effects | – | – | – | – | – | – | over 8 fold | 2.13 µM | 0.127 µM | – | – |
| COc1ccc(S(=O)(=O)N(CCSC(=S)N2CCN(CCO)CC2)c2cc(OC)c(OC)c(OC)c2)cc1 [Compound 17c, 2-((4-Methoxy-N-(3,4,5-trimethoxyphenyl)phenyl)sulfonamido)ethyl-4–(2-hydroxyethyl)piperazine-1-carbodithioate] | 10.8 ± 1.01 µM | 7.09 ± 1.33 µM | 9.17 ± 2.18 µM | 146 to 148 °C | – | – | – | – | – | – | – | – | – | – | – | – | – |
| COc1ccc(S(=O)(=O)N(CCSC(=S)N2CCN(C(C)=O)CC2)c2cc(OC)c(OC)c(OC)c2)cc1 [Compound 17d, 2-((4-Methoxy-N-(3,4,5-trimethoxyphenyl)phenyl)sulfonamido)ethyl-4-acetylpiperazine-1-carbodithioate] | 5.06 ± 0.68 µM | 1.58 ± 1.02 µM | 3.29 ± 0.84 µM | 152 to 154 °C | – | – | – | – | – | – | – | – | – | 1.78 µM | > 0.2 µM | over 3 fold | 46% |
| COc1ccc(S(=O)(=O)N(CCSC(=S)N2CCN(c3ccc(F)cc3)CC2)c2cc(OC)c(OC)c(OC)c2)cc1 [Compound 17e, 2-((4-Methoxy-N-(3,4,5-trimethoxyphenyl)phenyl)sulfonamido)ethyl-4–(4-fluorophenyl)piperazine-1-carbodithioate] | 6.17 ± 1.05 µM | 9.18 ± 1.32 µM | 7.57 ± 0.96 µM | 166 to 168 °C | – | – | – | – | – | – | – | – | – | – | – | – | – |
| COc1ccc(S(=O)(=O)N(CCSC(=S)N2CCN(C(=O)OC(C)(C)C)CC2)c2cc(OC)c(OC)c(OC)c2)cc1 [Compound 17f, Tert-butyl-4-(((2-((4-methoxy-N-(3,4,5-trimethoxyphenyl)phenyl)sulfonamido)ethyl)thio)carbonothioyl)piperazine-1-carboxylate] | 4.46 ± 1.38 µM | 2.32 ± 1.63 µM | 6.67 ± 1.25 µM | 162 to 164 °C | – | moderately depolymerised interphase microtubules | – | – | – | – | – | – | – | 3.07 µM | > 0.2 µM | – | 35.7% |

From PMC8291071, “Tertiary sulphonamide derivatives as dual acting small molecules that inhibit LSD1 and suppress tubulin polymerisation against liver cancer” (Journal of Enzyme Inhibition and Medicinal Chemistry, 2021)
